Reference: publication PMC9756341 (Journal of the American Chemical Society, 2022)

Columns and labels:
KLK6 [1] = experiment: Enzyme kinetics to calculate KM, KLK6; assay type: biochemical, human; conditions: fluorogenic substrate, KLK6 1.5 nM, 2% DMSO, room temperature, 30 min, Michaelis-Menten model, triplicates
Protocol: Reagents were obtained from VWR, Sigma Aldrich, Sartorius, Fluorochem, AGTC, Novabiochem, TCI, Alfa Aesar, Iris Biotech, Thermofisher and Bachem. […]
(Code 7449-SE) and KLK8 (Code 2025-SE) were obtained from BioTechne. KLK6 was obtained from the group of Aubry Miller (DKFZ) and KLK7 was obtained from the group of Judith Clements (QUT).
The manufacturer’s recommended buffers were used with uPA and tPA but not KLK8. The KLK6 assay buffer was as follows: 50 mM Tris 150 mM NaCl, 1 mM EDTA, 0.05% Tween20, pH 7.5. The KLK7/8 buffer was as follows: 100 mM Na2PO4, 0.01% Tween20, pH 8.5. Fluorescence measurements were measured using an Envision plate reader. Fluorescence data was processed using Graphpad Prism 8. […]
2-chlorotrityl chloride resin. […]
380nm/440nm. The data was analysed using Graphpad Prism 8. The initial slopes of each plot were calculated and presented in a bar chart, which represents the substrate specificity of the KLK. […]
Enzyme kinetics to calculate KM. Purified fluorogenic substrates were measured in triplicates. […]
temperature, fluorescence was read once every 30 s for 30 min from an Envision plate reader at excitation/emission wavelengths of 380nm/440nm. The data was analysed with Graphpad Prism 8, using the Michaelis-Menten model.
Enzyme kinetics to calculate kobs/I. All ABPs and inhibitors were measured in triplicates. […]

KLK6 [2] = experiment: Enzyme kinetics to calculate kobs/I, KLK6; assay type: biochemical, human; conditions: KLK6 1.5 nM, fluorogenic substrate 22 5 µM, 50 mM Tris 150 mM NaCl 1 mM EDTA 0.05% Tween20 pH 7.5, room temperature, read every 30 s for 30 min, ex/em 380/440 nm, pseudo first order kinetics, corrected by (1 + [S]/KM), triplicates
KLK8 = target: T1, KLK8 (Homo sapiens, UniProt O60259); experiment: Enzyme kinetics to calculate kobs/I, KLK8; assay type: biochemical; conditions: KLK8 1 nM, Boc-VPR-AMC 30 µM, 100 mM Na2PO4 0.01% Tween20 pH 8.5, room temperature, 30 min, pseudo first order kinetics, triplicates
T1 construct: Active recombinant FGFBP1 (Code 1593-FB), HSPG2 (Code 2364-ER), uPA (Code 1310-SE), tPA (Code 7449-SE) and KLK8 (Code 2025-SE) were obtained from BioTechne; purchased BioTechne 2025-SE
T1 sequence (O60259 33-260): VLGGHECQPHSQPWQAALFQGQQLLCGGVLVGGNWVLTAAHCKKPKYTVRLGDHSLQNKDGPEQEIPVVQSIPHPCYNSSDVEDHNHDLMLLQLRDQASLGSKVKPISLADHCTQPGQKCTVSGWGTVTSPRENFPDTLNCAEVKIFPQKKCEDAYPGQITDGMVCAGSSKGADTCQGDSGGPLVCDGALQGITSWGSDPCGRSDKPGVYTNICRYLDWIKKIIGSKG

Capan-2 cells [3] = conditions: Capan-2 cells (active KLK6), 2 μM, 24 h, relative to DMSO
Protocol: (§1) Next, the effect of KLK6 inhibition on migration and invasion of Capan-2 cells was assessed using a Boyden chamber assay.
(§2) (13 µL per condition). Control conditions included puromycin (100 µg/mL), DMSO only, Sytox green only or DMSO + Sytox green. The final inhibitor concentrations ranged from 2 µM to 125 nM. The cells were placed into an Incucyte with the incubator set at 37 °C and 5% CO2. Phase and green fluorescence were analysed every 4 h for 5 days.
(§3) Invasion/migration assays. Cell invasion was measured using Corning Fluoroblok inserts following a modified procedure11. Fluoroblok inserts were placed into the wells of a 24-well plate. Matrigel was suspended to 300 µg/mL in coating buffer (0.01M Tris, 0.7% NaCl, pH 8). The matrigel suspension (100 µL) was added into the Fluoroblok insert and the plate was left at 37 °C for 2 h. A migration control (with no matrigel) was also included. Cells were trypsinised and resuspended in serum-free DMEM.
(§4) The leftover buffer in the chambers was decanted and 500 µL of cells (100,000 per well) were seeded into the apical chamber of the insert. DMEM with 10% FBS (750 µL) was added into the basal chamber as a chemoattractant. The plate was incubated at 37 °C and 5% CO2 for 24 h. The chambers were removed and placed into a new 24-well plate containing 50 µM of CellTracker CMHC dye in HBSS. The cells were stained for 0.5 h and the chamber was removed and placed into the previous plate containing DMEM with 10% FBS. The cells were imaged for blue fluorescence (ex/em = 375/460) using a Celena S inverted fluorescence microscope. Percentage invasion was calculated by quantifying the cell area

BxPC-3 cells = BxPC-3 cells (no active KLK6), 2 μM, 24 h, relative to DMSO
Protocol: as §1, §2, §3, §4

Capan-2 cells [4] = conditions: 0.13 to 2 μM, Incucyte live cell imaging every 4 h for 5 days, serum-free DMEM
Protocol: Incucyte assays for proliferation and toxicity
Proliferation was quantified using the Incucyte software by measuring percentage confluency. Sytox
green was used as a marker for cell death. Cell death was quantified by measuring total green
fluorescence of each well.
Incucyte (proliferation and toxicity) assays. Capan-2 cells were seeded in a sterile 96 well plate
(10,000 cells per well). The outermost wells were left empty to mitigate edge effects. Cells were grown
in growth media (10% FBS) overnight to adhere. The next day, the media was replaced with serum-free
DMEM (117 µL) containing Sytox green (250 nM) or a DMSO control.

endogenous active KLK6 = conditions: Capan-2 conditioned media, streptavidin pulldown, KLK6 western blot
Protocol: Conditioned media was incubated with bABP 17 (10 μM) or DMSO for 2 h, and labeled proteins enriched on magnetic streptavidin-loaded beads, eluted, and analyzed by western blot against a KLK6 antibody.
Cell culture. Cells were cultured in their recommended culture media supplemented with 10% (v/v)
foetal bovine serum at 37 °C and 5% CO2.
Preparation of conditioned media. Cells were grown in standard growth media to 80% confluency in
a T175 flask. The medium was removed, and the cells were washed with serum-free, phenol-red free
RPMI. The cells were incubated with the same RPMI for 2 h. The medium was replaced once again
with serum-free, phenol-red free RPMI and the cells were incubated for 48 h. The condition medium
was collected and filtered through a 0.2 µm syringe filter. The medium was concentrated (25 mL to
0.75 mL) using a 3 kDa Mw cutoff spin filter to a final concentration of around 1 mg/mL. The protein
concentration was measured using a BioRad DCTM protein assay.
Pulldown experiments (western blot). Conditioned media was diluted with PBS to exactly 1 mg/mL.
200 µg of total protein was used per condition. The ABP or DMSO was added at a 1:100 dilution and
the samples were shaken at RT for 1 h. The proteins were precipitated using the MeOH/H2O/CHCl3
method. The pellet was washed twice with MeOH and dried in air for 5 min. The protein was
resuspended in 2% SDS in PBS to a concentration of 10 mg/mL. PBS was added to gradually dilute
the protein back to 1 mg/mL and the samples were centrifuged (17,000 g, 5 min). 5 µg of protein was
set aside as the “before pulldown” samples. Magnetic streptavidin beads were washed three times with
PBS. The rest of the protein was added into the beads and shaken at RT for 2 h. 5 µg of the supernatant
was set aside for analysis, while the rest was discarded. The beads were washed three times with 1%
SDS in PBS. […]
were boiled at 95 °C for 5 min. The proteins were analysed via SDS-PAGE and western blot analysis. […]
10 min, followed by 180 V for 60 min. Gels were then taken for western blot or in-gel fluorescence. […]

[5] = Fluoroblok insert without Matrigel
[6] = Matrigel-coated Fluoroblok insert

Row | Substance | KLK6 kobs/I (KLK6 [2]) [M^–1 s^–1] | KLK8 kobs/I (KLK8) [M^–1 s^–1] | also measured
1 | Ac-DPhe-Ser(Z)-Dht-Arg-ACC [compound 23, purified fluorogenic substrate for KLK6] |  |  | Km (KLK6 [1]): 180 µM
2 | Ac-Thr(Z)-Ala-Phg-Arg-ACC [compound 22, purified fluorogenic substrate for KLK6] |  |  | Km (KLK6 [1]): 86 µM
3 | Yn–Asp(Chx)–Cha–His(Z)–Phg(4-guan)PP [compound 4] | 54 |  | 
4 | Yn–DPhe–Ser(Z)–Dht–DArgPP [compound 20] | 0 |  | 
5 | Yn–Thr(Z)–Ala–Dab(Z)–Phg(4-guan)PP [compound 8] | 11 |  | 
6 | Yn–Thr(Z)–Ala–Dht–Phg(4-guan)PP [compound 5] | 250 |  | 
7 | Yn–Thr(Z)–Ala–Phg–Phg(4-guan)PP [compound 1] | 220 |  | 
8 | Yn–Thr(Z)–Ala–Ser(Z)–Phg(4-guan)PP [compound 7] | 43 |  | 
9 | Yn–Thr(Z)–Ala–Tyr(Z)–Phg(4-guan)PP [compound 6] | 7 |  | 
10 | Yn–Thr(Z)–Cha–His(Z)–Phg(4-guan)PP [compound 3] | 46 |  | 
11 | Yn–Thr(Z)–Chg–His(Z)–Phg(4-guan)PP [compound 2] | 30 |  | 
12 | biotin–Ahx–DPhe–Cha–Dht–ArgPP [compound 16] | 1300 | 150 | 
13 | biotin–Ahx–DPhe–Cha–Dht–Phg(4-guanPP [compound 11] | 210 | 0 | 
14 | biotin–Ahx–DPhe–Cha–Ser(Ac)–Phg(4-guan)PP [compound 15] | 150 | 20 | 
15 | biotin–Ahx–DPhe–DLys–Dht–Phg(4-guan)PP [compound 14] | 550 | 73 | 
16 | biotin–Ahx–DPhe–Lys–Dht–Phg(4-guan)PP [compound 13] | 250 |  | 
17 | biotin–Ahx–DPhe–Ser(Z)–Dht–DArgPP [compound 18] | 0 |  | effect on migration (Capan-2 cells [3]; [5]): no effect; effect on invasion (Capan-2 cells [3]; [6]): no effect; effect on migration (BxPC-3 cells; [5]): no effect; effect on invasion (BxPC-3 cells; [6]): no effect; effect on proliferation (percentage confluency) (Capan-2 cells [4]): no effect; labeling of endogenous KLK6 (endogenous active KLK6): no KLK6 labeling
18 | biotin–Ahx–DhPhe–Cha–Dht–Phg(4-guan)PP [compound 12] | 140 | 0 | 
19 | biotin–Ahx–Thr(Z)–Ala–Dht–Phg(4-guan)PP [compound 9] | 220 |  | 
20 | biotin–Ahx–Thr(Z)–Cha–Dht–Phg(4-guan)PP [compound 10] | 420 | 71 | 
